One data set deals with T1, CYP2C8 (Homo sapiens, UniProt P10632).
T1 sequence (P10632 1-490): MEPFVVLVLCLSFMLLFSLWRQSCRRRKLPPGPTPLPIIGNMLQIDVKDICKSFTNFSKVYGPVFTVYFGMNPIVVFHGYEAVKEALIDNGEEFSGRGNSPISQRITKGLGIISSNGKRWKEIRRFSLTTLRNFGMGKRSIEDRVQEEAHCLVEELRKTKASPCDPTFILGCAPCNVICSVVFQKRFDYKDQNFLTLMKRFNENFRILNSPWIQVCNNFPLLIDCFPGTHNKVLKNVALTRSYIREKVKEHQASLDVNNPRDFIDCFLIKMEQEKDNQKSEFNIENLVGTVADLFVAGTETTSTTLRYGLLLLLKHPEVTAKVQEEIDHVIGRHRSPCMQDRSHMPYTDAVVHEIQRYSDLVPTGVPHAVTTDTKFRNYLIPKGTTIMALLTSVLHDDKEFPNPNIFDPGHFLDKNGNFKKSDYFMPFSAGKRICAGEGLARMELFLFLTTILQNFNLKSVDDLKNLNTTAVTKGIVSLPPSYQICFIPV
The data set can be described thus: CYP2C8 Inhibition (HLM, paclitaxel substrate).

For the next data set, the target named is CYP2C19 (Homo sapiens, UniProt P33261). Put plainly: CYP2C19 Inhibition (HLM, omeprazole substrate).
A further data set concerns the target CYP2C9 (Homo sapiens, UniProt P11712). The data set can be described thus: CYP2C9 Inhibition (HLM, diclofenac substrate).
For data set [1], the target named is T2, CYP2B6 (Homo sapiens, UniProt P20813).
T2 sequence (P20813 1-491): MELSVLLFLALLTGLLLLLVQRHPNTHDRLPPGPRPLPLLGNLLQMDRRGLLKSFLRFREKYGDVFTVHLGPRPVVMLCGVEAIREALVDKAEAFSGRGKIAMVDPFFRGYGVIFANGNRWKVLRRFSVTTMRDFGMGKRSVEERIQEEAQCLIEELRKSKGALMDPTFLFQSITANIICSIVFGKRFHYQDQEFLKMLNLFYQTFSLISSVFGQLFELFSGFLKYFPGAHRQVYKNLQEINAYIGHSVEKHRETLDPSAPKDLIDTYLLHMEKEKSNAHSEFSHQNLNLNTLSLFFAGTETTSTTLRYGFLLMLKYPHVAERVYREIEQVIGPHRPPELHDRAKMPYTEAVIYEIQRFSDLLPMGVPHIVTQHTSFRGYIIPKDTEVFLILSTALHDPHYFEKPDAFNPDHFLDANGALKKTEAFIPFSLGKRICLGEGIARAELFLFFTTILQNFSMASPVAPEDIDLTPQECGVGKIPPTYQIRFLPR
The data set can be described thus: biochemical.

The target in data set [2] is T2, CYP2B6. As to conditions: both, 15 min, pH 7.4.

Molecules are shown by their SMILES.

This is an account of results in patent publication US8138191B2, “Inhibitor compounds and cancer treatment methods” (Critical Outcome Technologies Inc., priority 2007, dated 2012).

The IC50 is the concentration needed to halve the response being measured. The low end stands for greater potency, the high end for weaker potency.

CYP2C9, sequence (P11712 whole entry): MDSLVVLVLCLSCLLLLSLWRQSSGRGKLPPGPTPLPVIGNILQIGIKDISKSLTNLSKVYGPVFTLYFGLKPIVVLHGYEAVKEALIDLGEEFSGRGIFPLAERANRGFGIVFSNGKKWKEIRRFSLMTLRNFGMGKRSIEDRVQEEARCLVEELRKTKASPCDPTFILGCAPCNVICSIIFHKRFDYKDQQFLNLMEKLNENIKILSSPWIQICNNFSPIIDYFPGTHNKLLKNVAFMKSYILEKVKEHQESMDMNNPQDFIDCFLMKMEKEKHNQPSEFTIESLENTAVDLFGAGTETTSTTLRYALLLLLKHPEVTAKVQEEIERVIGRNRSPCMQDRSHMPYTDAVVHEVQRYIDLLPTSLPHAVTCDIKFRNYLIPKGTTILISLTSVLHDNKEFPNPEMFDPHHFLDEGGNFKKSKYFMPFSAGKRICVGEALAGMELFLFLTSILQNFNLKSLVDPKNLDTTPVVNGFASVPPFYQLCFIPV
CYP2C19, sequence (P33261 whole entry): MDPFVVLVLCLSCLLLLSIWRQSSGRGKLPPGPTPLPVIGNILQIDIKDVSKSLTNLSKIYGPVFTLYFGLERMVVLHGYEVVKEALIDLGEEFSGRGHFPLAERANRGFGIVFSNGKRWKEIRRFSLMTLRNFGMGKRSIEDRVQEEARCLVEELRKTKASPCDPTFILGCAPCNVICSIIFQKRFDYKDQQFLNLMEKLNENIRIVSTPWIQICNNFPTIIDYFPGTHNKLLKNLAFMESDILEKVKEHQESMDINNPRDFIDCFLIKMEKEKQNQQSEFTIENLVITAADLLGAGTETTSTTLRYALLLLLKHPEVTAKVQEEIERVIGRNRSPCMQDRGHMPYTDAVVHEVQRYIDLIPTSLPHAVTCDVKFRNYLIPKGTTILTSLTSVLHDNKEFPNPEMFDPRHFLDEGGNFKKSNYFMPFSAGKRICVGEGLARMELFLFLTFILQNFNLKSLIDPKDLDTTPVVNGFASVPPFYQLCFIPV

With `COC(=O)C1=C(C)NC(C)=C(C(=O)OCCN(C)Cc2ccccc2)C1c1cccc([N+](=O)[O-])c1` (centres unmarked) [Nicardipine], the nH on CYP2C8 turned out to be 1.2.
For the compound `CCN(CC)CC#CCOC(=O)C(O)(c1ccccc1)C1CCCCC1` (centres unmarked) [Oxybutynin], the nH at CYP2C19 worked out at 1.1.
`Nc1ccc(S(=O)(=O)Nc2ccnn2-c2ccccc2)cc1` [Sulfaphenazole] registered a nH at CYP2C9 of 1.1.
The compound `COC(=O)[C@H](c1ccccc1Cl)N1CCc2sccc2C1` [Clopidogrel] registered an IC50 on CYP2B6 [1] of 640 nM. At CYP2B6 [2], this compound registered a nH of 2.7.
